Test system: Plasmodium falciparum
Assay: Inhibitory concentration against Plasmodium falciparum
Type: functional, organism-based

Structure (SMILES)	IC50
COC(=O)CC1CCC(CCCCCOC(=O)NCCCC[C@@H]2CCC3NC(=O)NC32)(OC)OO1 (some centres not stated)	910 nM
COC(=O)CC1CCC(CCCCCOC(=O)NCCCCNC(=O)OCCOCCOC(=O)NCCCC[C@@H]2CCC3NC(=O)NC32)(OC)OO1 (some centres not stated)	570 nM

From ChEMBL document CHEMBL1147473, “Synthesis of a bioprobe for elucidation of target molecule of spongean anti-malarial peroxides” (Bioorg Med Chem Lett, 2004)
